These results are taken from patent US10961200B2, “Small molecule inhibitors of lactate dehydrogenase and methods of use thereof” (THE UNITED STATES OF AMERICA, AS REPRESENTED BY THE …, priority 2014, dated 2021).

One assay has as its target Human LDHA (Homo sapiens (Human), UniProt P00338). Briefly: human LDHA primary biochemical assay (resazurin/diaphorase coupled, fluorescence). The source says:
Test compounds were placed in a Greiner Bio-One (Monroe, N.C.) 1536-well black solid bottom assay plate. 200 millimolar (mM) Tris HCl, pH 7.4, 100 micromolar […] EDTA and 0.01% TWEEN-20™, final concentration, was used as the assay buffer. The LDHA reagent was 2 nanomolar (nM) Human LDHA (Meridian Life Science, Inc., Memphis, Tenn.), final concentration, in assay buffer.
In general terms: Resazurin is reduced to fluorescent resorufin, in cell work by metabolically active cells.

The test system of the next assay is MiaPaCa2 cells. Put plainly: cell-based HT lactate assay, colorimetric/fluorometric detection (inhibition of lactate production). As to conditions: class symbols, 0 to 3 pluses. The method, then: Cell-based HT Lactate assay is a miniaturized Biovision Lactate Colorimetric/Fluorometric Assay Kit (Cat #K607-100). The assay is roughly a 3.5 hour assay run in a 1536 plate format. Cell number optimization should be run for each cell line to achieve an optimal number in which lactate production equals roughly 90% of the standard curve range. Cell number per well optimization has been performed with the following cell lines: MiaPaCa2—500 cells/well, SNU398—500 cells/well, and P493—500 cells/well.
The lactate activity in Table 8 is represented by 0 to 3 pluses as follows: +++<1 μM; ++1-10 μM; +10-57 μM; and −>57 μM.

Setting [1] is: LDHA inhibitory activity, activity level based on IC50 (Table 7).
Setting [2] is: LDHA inhibitory activity, assay of Example 1, activity level classes.

Each structure is given as a SMILES string. Where two headings read alike, the source gives them in different places.

Take `Cc1ccc(C#Cc2cc(-c3nn(-c4nc(C(=O)O)cs4)c(CC4CC4)c3Cc3ccc(S(N)(=O)=O)c(F)c3)ccc2F)s1` [Compound 408]: the IC50 – broadly, the point on the concentration scale where inhibition reaches its midpoint – is less than 100 nM against Human LDHA (setting [1]) and less than 1000 nM in the assay on MiaPaCa2 cells.

`NS(=O)(=O)c1ccc(Cc2c(-c3ccc(F)c(Oc4ccc(C(F)(F)F)cc4)c3)nn(-c3nc(C(=O)O)cs3)c2CC2CC2)cc1F` [Compound 512, 2-(5-(cyclopropylmethyl)-3-(4-fluoro-3-(4-(trifluoromethyl)phenoxy)phenyl)-4-(3-fluoro-4-sulfamoylbenzyl)-1H-pyrazol-1-yl)thiazole-4-carboxylic Acid]: the IC50 on Human LDHA (setting [1]) was less than 100 nM; in the assay on MiaPaCa2 cells (Homo sapiens, MIA PaCa-2), less than 1000 nM.

Take `NS(=O)(=O)c1ccc(Cc2c(-c3ccc(F)c(C#CC4(O)CCOC4)c3)nn(-c3nc(C(=O)O)cs3)c2CC2CC2)cc1F` (stereo not shown) [Compound 418]: the values for the half-maximal inhibitory concentration (IC50) on Human LDHA (setting [1]) and in the assay on MiaPaCa2 cells were less than 100 nM and 1000 to 10000 nM, respectively.

With `Cc1ccc(-c2cc(-c3nn(-c4nc(C(=O)O)cs4)c(CC4CC4)c3Cc3ccc(S(N)(=O)=O)cc3F)ccc2F)cc1` [Compound 307], the IC50 is less than 100 nM against Human LDHA (setting [2]) and less than 1000 nM with MiaPaCa2 cells.

`NS(=O)(=O)c1ccc(Cc2c(-c3ccc(F)c(C4C5CC6CC(C5)CC4C6)c3)nn(-c3nc(C(=O)O)cs3)c2CC2CC2)cc1F` (stereo not shown) [Compound 375]: the IC50 fell in the range of 100 to 1000 nM against Human LDHA (setting [1]) and 1000 to 10000 nM in the assay on MiaPaCa2 cells.

With `N[S+](=O)([O-])c1ccc(Cc2c(-c3ccc(F)c(C#CCC4CCCO4)c3)nn(-c3nc(C(=O)O)cs3)c2CC2CC2)cc1F` (stereo not shown) [Compound 421], the IC50 is less than 100 nM against Human LDHA (setting [1]) and 1000 to 10000 nM in the assay with MiaPaCa2 cells.

For `CC(C)(O)C#Cc1cc(-c2nn(-c3nc(C(=O)O)cs3)c(CC3CC3)c2Cc2ccc(S(N)(=O)=O)c(F)c2)ccc1F` [Compound 265], the results for the IC50 against Human LDHA (setting [2]) and in the assay with MiaPaCa2 cells were less than 100 nM and 1000 to 10000 nM, respectively.

As to `NS(=O)(=O)c1ccc(Cc2c(-c3ccc(F)c(F)c3)nn(-c3nc(C(=O)O)cs3)c2O)cc1` [Compound 53, 2-(3-(3,4-difluorophenyl)-5-hydroxy-4-(4-sulfamoylbenzyl)-1H-pyrazol-1-yl)thiazole-4-carboxylic acid], in the assay on MiaPaCa2 cells (Homo sapiens, MIA PaCa-2), the IC50 is more than 57000 nM.

On to `Cc1ccc(-c2cccc(-c3nn(-c4nc(C(=O)O)cs4)c(CC4CC4)c3Cc3ccc(S(N)(=O)=O)c(F)c3)c2)cc1` [Compound 332], for which the 50% inhibitory concentration (IC50) on Human LDHA (setting [2]) is less than 100 nM; in the assay with MiaPaCa2 cells, less than 1000 nM.

For `NS(=O)(=O)c1ccc(Cc2c(-c3cccc(OC4CCCC4)c3)nn(-c3nc(C(=O)O)cs3)c2CC2CC2)cc1` [Compound 337], the half-inhibitory concentration (IC50) at Human LDHA (setting [2]) was less than 100 nM; in the assay with MiaPaCa2 cells, less than 1000 nM.

Regarding `Cc1csc(-c2cc(-c3nn(-c4nc(C(=O)O)cs4)c(CC4CC4)c3Cc3ccc(S(N)(=O)=O)cc3F)ccc2F)c1` [Compound 221, 2-(5-(cyclopropylmethyl)-3-(4-fluoro-3-(4-methylthiophen-2-yl)phenyl)-4-(2-fluoro-4-sulfamoylbenzyl)-1H-pyrazol-1-yl)thiazole-4-carboxylic acid], the IC50 at Human LDHA (read-out: Inhibitory activity IC50) is less than 100 nM; in the assay on MiaPaCa2 cells (Homo sapiens, MIA PaCa-2), less than 1000 nM.

`CCOC(=O)c1csc(-n2nc(-c3ccc(F)c(C#CC4CCCC4)c3)c(Cc3ccc(S(N)(=O)=O)c(F)c3)c2C2CC2)n1` [Compound 434]: the IC50 was 1000 to 57000 nM against Human LDHA (setting [1]) and more than 57000 nM with MiaPaCa2 cells.

For `N[S+](=O)([O-])c1ccc(Cc2c(-c3ccc(F)c(-c4cccc(F)c4)c3)nn(-c3nc(C(=O)O)cs3)c2CC2CC2)cc1F` [Compound 326], the IC50 on Human LDHA (setting [2]) is less than 100 nM; with MiaPaCa2 cells, less than 1000 nM.

As to `CC(F)C#Cc1cc(-c2nn(-c3nc(C(=O)O)cs3)c(CC3CC3)c2Cc2ccc([S+](N)(=O)[O-])c(F)c2)ccc1F` (stereo not shown) [Compound 443], the IC50 was less than 100 nM against Human LDHA (setting [1]) and less than 1000 nM in the assay on MiaPaCa2 cells (Homo sapiens, MIA PaCa-2).

On to `CC#Cc1cc(-c2nn(-c3nc(C(=O)OCC)cs3)c(CC3CC3)c2Cc2ccc(S(N)(=O)=O)c(F)c2)ccc1F` [Compound 420], for which the concentration for half-maximal inhibition (IC50) was 1000 to 57000 nM at Human LDHA (setting [1]) and more than 57000 nM in the assay with MiaPaCa2 cells.

In the case of `N[S+](=O)([O-])c1ccc(Cc2c(-c3ccc(F)c(C4CC4)c3)nn(-c3nc(C(=O)O)cs3)c2CC2CC2)cc1F` [Compound 385], the IC50 against Human LDHA (setting [1]) is less than 100 nM; with MiaPaCa2 cells, less than 1000 nM.

As to `CC(c1ccccc1)c1cc(-c2nn(-c3nc(C(=O)O)cs3)c(CC3CC3)c2Cc2ccc(S(N)(=O)=O)c(F)c2)ccc1F` (stereo not shown) [Compound 384], the IC50 at Human LDHA (setting [1]) was less than 100 nM; with MiaPaCa2 cells, less than 1000 nM.

In the case of `NS(=O)(=O)c1ccc(Cc2c(-c3cccc(OC4CCCC4)c3)nn(-c3nc(C(=O)O)cs3)c2CC2CC2)cc1F` [Compound 336], the IC50 was less than 100 nM at Human LDHA (setting [2]) and less than 1000 nM in the assay with MiaPaCa2 cells.

For the molecule `CCOC(=O)c1csc(-n2nc(-c3ccc(F)c(-c4cccc(F)c4)c3)c(Cc3ccc([S+](N)(=O)[O-])c(F)c3)c2CC2CC2)n1` [Compound 377], the half-inhibitory concentration (IC50) on Human LDHA (setting [1]) and in the assay with MiaPaCa2 cells was more than 57000 nM each time.

On to `NS(=O)(=O)c1ccc(Cc2c(-c3cccc(C(O)(C4CC4)C(F)(F)F)c3)nn(-c3nc(C(=O)O)cs3)c2CC2CC2)cc1F` (stereo not shown) [Compound 398], for which the results for the IC50 against Human LDHA (setting [1]) and with MiaPaCa2 cells were less than 100 nM and 10000 to 57000 nM, respectively.

With `CC(C)(C)NC(=O)c1cc(-c2nn(-c3nc(C(=O)O)cs3)c(CC3CC3)c2Cc2ccc(S(N)(=O)=O)c(F)c2)ccc1F` [Compound 543, 2-(3-(3-(tert-butylcarbamoyl)-4-fluorophenyl)-5-(cyclopropylmethyl)-4-(3-fluoro-4-sulfamoylbenzyl)-1H-pyrazol-1-yl)thiazole-4-carboxylic acid], the IC50 at Human LDHA (setting [1]) was less than 100 nM; in the assay with MiaPaCa2 cells (Homo sapiens, MIA PaCa-2), 1000 to 10000 nM.

Take `CCOC(=O)c1csc(-n2nc(-c3ccc(F)c(C#CC4CCCC4)c3)c(Cc3ccc([S+](N)(=O)[O-])cc3)c2CC2CC2)n1` [Compound 429]: the IC50 against Human LDHA (setting [1]) was 1000 to 57000 nM; with MiaPaCa2 cells it was more than 57000 nM.

With `N[S+](=O)([O-])c1ccc(Cc2c(-c3ccc(F)c(C4CCC4)c3)nn(-c3nc(C(=O)O)cs3)c2CC2CC2)cc1F` [Compound 382], the results for the IC50 against Human LDHA (setting [1]) and in the assay on MiaPaCa2 cells were less than 100 nM and less than 1000 nM, respectively.

As for `CCC(C)(C)c1cc(-c2nn(-c3nc(C(=O)O)cs3)c(CC3CC3)c2Cc2ccc(S(N)(=O)=O)c(F)c2)ccc1F` [Compound 381], the IC50 was less than 100 nM against Human LDHA (setting [1]) and less than 1000 nM in the assay on MiaPaCa2 cells.

On to `NS(=O)(=O)c1ccc(Cc2c(-c3ccc(F)c(C#CCC4CC4)c3)nn(-c3nc(C(=O)O)cs3)c2CC2CC2)cc1F` [Compound 437], for which the IC50 against Human LDHA (setting [1]) is less than 100 nM; in the assay on MiaPaCa2 cells it was less than 1000 nM.

Take `NS(=O)(=O)c1ccc(Cc2c(-c3cc(F)cc(-c4cccc(F)c4)c3)nn(-c3nc(C(=O)O)cs3)c2CC2CC2)cc1` [Compound 523, 2-(5-(cyclopropylmethyl)-3-(3′,5-difluoro-[1,1′-biphenyl]-3-yl)-4-(4-sulfamoylbenzyl)-1H-pyrazol-1-yl)thiazole-4-carboxylic acid]: the IC50 fell in the range of 100 to 1000 nM against Human LDHA (setting [1]) and 1000 to 10000 nM in the assay with MiaPaCa2 cells (Homo sapiens, MIA PaCa-2).

In the assay on MiaPaCa2 cells (Homo sapiens, MIA PaCa-2), `CC(C)Oc1cccc(-c2nn(-c3nc(C(=O)O)cs3)c(CC3CC3)c2Cc2ccc(S(N)(=O)=O)cc2)c1` [Compound 504, 2-(5-(cyclopropylmethyl)-3-(3-isopropoxyphenyl)-4-(4-sulfamoylbenzyl)-1H-pyrazol-1-yl)thiazole-4-carboxylic Acid] yielded an IC50 of 1000 to 10000 nM.

On to `NS(=O)(=O)c1ccc(Cc2c(-c3cccc(-c4ccccc4)c3)nn(-c3nc(C(=O)O)cs3)c2O)cc1` [Compound 54, 2-(3-([1,1′-biphenyl]-3-yl)-5-hydroxy-4-(4-sulfamoylbenzyl)-1H-pyrazol-1-yl)thiazole-4-carboxylic acid], for which the IC50 with MiaPaCa2 cells (Homo sapiens, MIA PaCa-2) was more than 57000 nM.

Consider `N[S+](=O)([O-])c1ccc(Cc2c(-c3cccc(-c4ccccc4)c3)nn(-c3nc(C(=O)O)cs3)c2CC2CC2)cc1` [Compound 276], for which, in the assay with MiaPaCa2 cells, the IC50 was less than 1000 nM.

In the assay with MiaPaCa2 cells (Homo sapiens, MIA PaCa-2), `Cc1ccc(-c2cc(-c3nn(-c4nc(C(=O)O)cs4)c(CC4CC4)c3Cc3ccc(S(N)(=O)=O)cc3F)ccc2F)cc1` [Compound 472, 2-(5-(cyclopropylmethyl)-3-(6-fluoro-4′-methyl-[1,1′-biphenyl]-3-yl)-4-(2-fluoro-4-sulfamoylbenzyl)-1H-pyrazol-1-yl)thiazole-4-carboxylic acid] came in with an IC50 of less than 1000 nM.

`NS(=O)(=O)c1ccc(Cc2c(-c3cccc(Nc4ccccc4)c3)nn(-c3nc(C(=O)O)cs3)c2CC2CC2)cc1` [Compound 485, 2-(5-(cyclopropylmethyl)-3-(3-(phenylamino)phenyl)-4-(4-sulfamoylbenzyl)-1H-pyrazol-1-yl)thiazole-4-carboxylic acid] had an IC50 with MiaPaCa2 cells (Homo sapiens, MIA PaCa-2) of 1000 to 10000 nM.

`NS(=O)(=O)c1ccc(Cc2c(-c3cccc(OC4CCCC4)c3)nn(-c3nc(C(=O)O)cs3)c2CC2CC2)cc1` [Compound 477, 2-(3-(3-(cyclopentyloxy)phenyl)-5-(cyclopropylmethyl)-4-(4-sulfamoylbenzyl)-1H-pyrazol-1-yl)thiazole-4-carboxylic Acid] showed an IC50 in the assay with MiaPaCa2 cells (Homo sapiens, MIA PaCa-2) of less than 1000 nM.

Consider `NS(=O)(=O)c1ccc(Cc2c(-c3ccc(F)c(OC4CC4)c3)nn(-c3nc(C(=O)O)cs3)c2CC2CC2)cc1F` [Compound 471, 2-(3-(3-cydopropoxy-4-fluorophenyl)-5-(cyclopropylmethyl)-4-(3-fluoro-4-sulfamoylbenzyl)-1H-pyrazol-1-yl)thiazole-4-carboxylic acid], for which the IC50 in the assay with MiaPaCa2 cells (Homo sapiens, MIA PaCa-2) was in the range of 1000 to 10000 nM.
